Experimental data from article PMC6943527, “Are the Hydantoin-1,3,5-triazine 5-HT6R Ligands a Hope to a Find New Procognitive and Anti-Obesity Drug? Considerations Based on Primary In Vivo Assays and ADME-Tox Profile In Vitro” (Molecules, 2019).
pKi: −log10 of the molar value.

Assays:
CYP3A4 = molecular target: T1, CYP3A4 (Homo sapiens, UniProt P08684); assay: CYP3A4 P450-Glo drug-drug interaction assay; format: in vitro ADME
T1 construct: purchased Promega (Madison, WI, USA)
Description: The influence of triazine derivatives on two the most involved in drug metabolism CYP (cytochrome P450) isoforms CYP3A4 and CYP2D6 was also investigated.
The study was performed using the CYP3A4 P450-Glo^TM and CYP2D6 P450-Glo^TM commercial tests provided by Promega (Madison, WI, USA). The influence of compounds on CYPs activity was tested in white polystyrene, flat-bottom Nunc^TM MicroWell^TM 96-well microplates (Thermo Scientific, Waltham, MA USA), and the bioluminescence signal was measured with a microplate reader (EnSpire) in luminescence mode, as described previously. KMP-10 and DJ-18 were tested in triplicate in the range of 0.01–25 µM for both isoforms’ P450 cytochrome. KE and QD were used as the reference compounds for CYP3A4 and CYP2D6, respectively.

hepatoma HepG2 cell line = assay: Hepatotoxicity assay, HepG2 cell viability; format: cell-based; conditions: HepG2, 0.1-100 µM, 72 h
Description: The cell-based assays were used to investigate safety of the 5-HT6R ligands. […] During the same study, no effect for KMP-10 was observed. Additional safety tests with the hepatoma HepG2 cell line were performed here to estimate the compounds’ hepatotoxicity. A slight antiproliferative effect was observed only for DJ-18 at 100 µM, where the cell viability was decreased to up to ~83% of the control (Figure 9a).
Hepatotoxicity was estimated using the hepatoma HepG2 (ATCC® HB-8065^TM) cell line according to previously described protocols. The CellTiter 96® AQueous Non-Radioactive Cell Proliferation Assay was obtained from Promega (Madison, WI, USA). The compounds were investigated in quadruplicate at four concentrations (0.1–100 µM) for 72h. The antiproliferative drug DX was used as a positive control at a dose of 1 µM.

[1] = Novel object recognition (NOR) test; format: in vivo, male Wistar rats; conditions: rats
Description: The experiments were performed on male Wistar rats (200–220 g) obtained from an accredited animal facility at the Jagiellonian University Medical College, Poland. The animals were housed in group of four in controlled environment (ambient temperature 21 ± 2 °C; relative humidity 50%–60%; 12-h light/dark cycles (lights on at 8:00). Standard laboratory food (LSM-B) and filtered water were freely available. Animals were randomly assigned to treatment groups. All the experiments were performed by two observers unaware of the studied treatment between 9:00 and 14:00 on separate groups of animals. All animals were used only once. Procedures involving animals and their care were conducted in accordance with current European Community and Polish legislation on animal experimentation. Additionally, all efforts were made to minimize animal suffering and to use only the number of animals necessary to produce reliable scientific data. […]
The animals explored the objects by looking, licking, sniffing or touching the object but not when leaning against, standing or sitting on the object. […] The exploration time of the objects was measured by blind experimenter. Based on exploration time (E) of the two objects during T2, the discrimination index (DI) was calculated according to the formula: DI = (EB − EA)/(EA + EB). […]

[2] = Food and water intake, rats fed standard diet only; format: in vivo, male Wistar rats; conditions: 5 mg/kg b.w. i.p., vs control group
Description: The experiments were carried out on male Wistar rats. Their initial body weight was 210–230 g. The animals were housed in pairs in plastic cages in constant temperature facilities exposed to a light–dark cycle; water and food were available ad libitum. The control and experimental groups consisted of eight animals each. All experiments were conducted according to the guidelines of the Animal Use and Care Committee of the Jagiellonian University and were approved for realization (2013 and 2015, Poland; Permissions No 136/2013 and 258/2015).
The standard diet contained 100 g of feed—280 kcal.
Male Wistar rats (190–220 g) were housed in pair. The control group (standard diet + vehicle) received vehicle (1% Tween 80, i.p.), while the test group (standard diet + KMP-10 5 mg) was intraperitoneally injected with KMP-10 at the dose 5 mg/kg b.w./day dissolved in 1% Tween 80. The intakes of food and water were evaluated daily.

5-HT1A = molecular target: 5-HT1A; set-up: method as in PMID 30282913; conditions: radioligand binding, average of at least two independent experiments; read-out: Ki 5-HT1A [3H]-8-OH-DPAT; cited from earlier work
5-HT2A = molecular target: 5-HT2A; set-up: method as in PMID 30282913; conditions: radioligand binding, average of at least two independent experiments; read-out: Ki 5-HT2A [3H]-Ketanserin; cited from earlier work
[3] = set-up: method as in PMID 30282913; conditions: overeating model, vs control group; cited from earlier work
[4] = set-up: method as in PMID 30282913; conditions: cited from earlier work

T1 sequence (P08684 whole entry): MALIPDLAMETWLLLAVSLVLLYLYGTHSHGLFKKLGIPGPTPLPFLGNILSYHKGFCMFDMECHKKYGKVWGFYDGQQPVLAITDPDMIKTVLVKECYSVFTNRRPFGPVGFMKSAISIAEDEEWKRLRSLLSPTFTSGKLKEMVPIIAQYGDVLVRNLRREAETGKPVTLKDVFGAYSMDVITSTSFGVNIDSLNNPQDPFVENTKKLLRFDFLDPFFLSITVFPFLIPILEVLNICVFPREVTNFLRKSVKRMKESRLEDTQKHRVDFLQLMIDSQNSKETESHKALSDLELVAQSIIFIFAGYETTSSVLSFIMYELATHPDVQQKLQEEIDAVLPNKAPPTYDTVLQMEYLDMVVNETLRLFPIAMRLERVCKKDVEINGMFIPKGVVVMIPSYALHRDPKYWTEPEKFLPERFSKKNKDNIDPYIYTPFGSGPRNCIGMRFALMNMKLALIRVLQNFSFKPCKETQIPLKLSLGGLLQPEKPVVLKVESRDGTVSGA

Compound: CN1CCN(c2nc(N)nc(CN3C(=O)NC(C)(c4ccc5ccccc5c4)C3=O)n2)CC1 (centres unmarked) [KMP-10, 3-((4-amino-6-(4-methylpiperazin-1-yl)-1,3,5-triazin-2-yl)methyl)-5-methyl-5-(naphthalen-2-yl)imidazolidine-2,4-dione]
- Effect on CYP3A4 activity (CYP3A4; highest used dose of 25 µM): slight stimulation effect
- Influence on CYP3A4 (CYP3A4; summary in comparison to SUVN-502): almost no influence
- Hepatotoxic character (hepatoma HepG2 cell line): did not show any hepatotoxic character
- Memory deficits induced by scopolamine in NOR test ([1]; full dose-range 0.3–3 mg/kg i.p.): significantly and dose-dependently reversed
- Memory impairment induced by MK-801 in NOR test, discrimination index ([1]; some activity at 1 mg/kg i.p.): did not reach a statistically significant level
- Amount of calories consumed [2]: significantly reduced
- Water intake [2]: significantly lower
- pKi (5-HT1A): 4.85
- pKi (5-HT2A): 4.77
- Increase of body mass [3]: significantly lower increase
- Antidepressive-like properties in the Porsolt model [4]: antidepressive-like properties
